Data published in patent publication US11708283B2, “Metal-chelating compositions and their use in methods of removing or inhibiting barium scale” (CORNELL UNIVERSITY, priority 2018, dated 2023).

Legend:
[1] = Dissolution of barium sulfate suspension (GFAAS); settings: for BaSO4 dissolved: 30 minutes
Method: First, a suspension of BaSO4 in pH 8 NaHCO3 was formed by combining Ba(NO3)2 (4.53 mM) with excess Na2SO4 (13.48 mM), simulating the mixing of incompatible waters that produces BaSO4 scale in petroleum operations. The resulting BaSO4 suspension was treated with ligand (5 mM), and the amount of dissolved Ba^2+ was measured by GFAAS.
More specifically. BaSO4 dissolution experiments at pH 8 were performed in NaHCO3 (1 M, pH=7.9-8.0); dissolution studies at pH 11 were performed in Na2CO3 (1 M, pH adjusted to 10.98 using concentrated HCl). […] The concentration of the DOTA stock solution was calculated from the mass of the ligand used (255.5 mg). A solution of Na2SO4 (293 mM) was prepared in water. The barium source for this experiment was an ICP standard solution of Ba(NO3)2 (72.99 mM; 10023 μg/mL) in 2% v/v HNO3.
Dissolution studies were carried out in 2 mL borosilicate vials equipped with identical magnetic stir bars (6.4×3 mm). Each BaSO4 suspension was prepared independently by mixing Ba(NO3)2 and Na2SO4 in 1 M NaHCO3 or Na2CO3 to give final concentrations of 4.53 mM (621,426 μg/L) and 13.48 mM, respectively. Dissolution was initiated by the addition of an aliquot of ligand (5 mM final concentration, 1.1 equiv with respect to Ba^2+) to each suspension. Controls (pH 8) received an aliquot of water instead of ligand. The suspensions were stirred at room temperature (22±1° C.) at a rate of 550 RPM. At time points of 5 min (pH 11 only), 10 min, 20 min, and 30 min, the suspensions were filtered through nylon syringe filters (either 0.2 μm or 0.22 μm), and the filtrates were analyzed as described below. The dissolution experiments were performed in triplicate at every time point for each ligand except DOTA, for which 6 replicates were run for 20 min and 30 min time points at pH 8.
The filtered samples were diluted 6565-fold (65×101) with water and analyzed for barium content by GFAAS using the furnace method and instrument parameters discussed earlier above. Standards containing both ligand and barium at the same concentrations employed in the dissolution studies were prepared in either NaHCO3 (pH 8) or Na2CO3 (pH 11); water was substituted for Na2SO4. […] Water was used as the diluent. Following calibration, each sample was analyzed in triplicate and averaged. After the analysis of every three samples, a single measurement of water was made to ensure that there was no carryover of barium. After every three (pH 11) or six (pH 8) samples were analyzed, an independently-prepared Ba-L standard was analyzed a maximum of two times as a quality control check. If the measurement was not within ±10% of the known concentration of barium, the instrument was re-calibrated and the data between the failed calibration check and the previous calibration check was excluded. Data from each time point were averaged and the results are reported as the percentage of barium dissolved. The errors given correspond to 1 standard deviation.

[2] = Protonation constants of the ligands by pH-potentiometric titration; assay type: physicochemical; settings: for log Ka1 / log Ka2 / log Ka3 / log Ka4: pH-potentiometry, 25° C., I = 0.1M KCl; for occurrence of the fully deprotonated ligand in solution: ligand speciation versus pH
Method: Potentiometric measurements were carried out using a titrator equipped with a combination electrode and an exchange unit with an automatic burette (10 mL). The titration vessel was fitted with a removable glass cell (˜70 mL) and was thermostated at 25° C. using a circulating water bath. CO2 was excluded from the vessel prior to and during the titrations using a small positive pressure of Ar that was passed through a solution of 30 wt % KOH. Carbonate-free KOH (˜0.1 M) was prepared by dissolving KOH pellets (semiconductor grade, 99.99% trace metals basis) in freshly boiled water (≥18 MΩ-cm) and was standardized by potentiometric titration against potassium hydrogen phthalate. Hydrochloric acid (0.1 M) was standardized against freshly prepared KOH. Titration solutions were maintained at a constant ionic strength of 0.1 M using KCl (≥99.5%) and were equilibrated for 15 minutes prior to the addition of titrant. Before every titration, the electrode was calibrated in terms of hydrogen ion concentration by titrating a solution of standardized HCl (5 mM) containing supporting electrolyte (95 mM) with standardized KOH (2 mL). Data within the pH ranges of 2.5-3.2 and 10.8-11.2 were analyzed using software to obtain the standard electrode potential (E0) and slope factor. Owing to the sharp rise in pH at the titration endpoint (pH 3.2-10.8), data obtained in this region are subject to significant error and were therefore excluded from the calibration analysis. A pKw value of 13.78 was taken from the literature (Baes, C. F.; Mesmer, R. E. The Hydrolysis of Cations; Wiley: New York, 1976).
Stock solutions of macropa and macropaquin were prepared in H2O. […] The exact ligand concentrations were determined from the potentiometric titration curves with KOH. Protonation equilibria of macropa^2− and macropaquin^2− were determined by adding standardized KOH to a solution (20 mL) containing ligand (˜0.02 mmol), 0.1 M HCl (0.1 mmol), and 1 M KCl (1.9 mmol). The titration method employed a 0.1 mV/min drift limit with a maximum wait time of 90 sec between addition of base and measurement. At least 70 data points were collected over the pH range of 2.5-10.5 (macropa) or 2.5-11.3 (macropaquin). The protonation constants, defined in Eq. 1, were calculated from the average of at least 4 independent titrations using the appropriate software.
Both ligand (L) and proton concentrations were admitted as refineable parameters. The errors given for the protonation constants correspond to one standard deviation. The protonation constants measured for macropa^2− were consistent with those previously reported (Roca-Sabio et al., 2009, supra); log Ka5 was not able to be determined under the conditions employed here. Protonation equilibria of macroquin-SO3^4− were determined by titrating standardized HCl (˜5.19 mL) into a solution (62.5 mL) containing ligand (˜0.013 mmol, 10.4 mg), KOH (0.25 mmol), and 1 M KCl (6 mmol). The same titration method was employed as described above for the other two ligands. At least 90 data points over the pH range of 4.0-10.8 were included in the refinement; no additional protonation constants could be refined when data from pH 2.5-3.99 were included. The protonation constants were calculated from the average of 15 independent titrations.

`O=C(O)CN1CCN(CC(=O)O)CCN(CC(=O)O)CCN(CC(=O)O)CC1` [DOTA, reference compound] showed a BaSO4 dissolved ([1]; pH 8, RT, 5 mM ligand) of 40% and a BaSO4 dissolution ([1]; pH 11, 30 min) of 75%.
For `O=C(O)c1cccc(CN2CCOCCOCCN(Cc3cccc(C(=O)O)n3)CCOCCOCC2)n1` [macropa, 6,6-((1,4,10,13-tetraoxa-7,16-diazacyclooctadecane-7,16-diyl)bis(methylene))dipicolinic acid], the “overall basicity of the ligand, sum of log Ka values” (from here on “overall basicity … of log Ka values”) [2] was 19.99, the “fraction of ligand fully deprotonated (L^2−)” value ([2]; pH 7.4) was 43% and the “log Ka1” value [2] was 7.41. The “log Ka2” value [2] was 6.899, the “log Ka3” value [2] was 3.23(1) and the “log Ka4” value [2] was 2.45(5). For the same molecule, the “log Ka1” value ([2]; listed as macropa^2−) was 7.41(1), the “log Ka2” value ([2]; listed as macropa^2−) was 6.899(3) and the BaSO4 solubilized ([1]; pH 8, RT, 5 mM ligand, 10 minutes) was 78%. The BaSO4 dissolved ([1]; pH 8, RT, 5 mM ligand) was “complete dissolution” and the BaSO4 solubilized ([1]; pH 11, 5 min) was over 95%.
With `O=C(O)c1cccc(CN2CCOCCOCCN(Cc3ccc4cccc(O)c4n3)CCOCCOCC2)n1` [macropaquin, 6-((16-((8-hydroxyquinolin-2-yl)methyl)-1,4,10,13-tetraoxa-7,16-diazacyclooctadecan-7-yl)methyl)picolinic acid] the “overall basicity … of log Ka values” [2] was 27.69, the “occurrence of the fully deprotonated ligand in solution” value [2] was “do not exist in solution below pH 8” and the “fraction of ligand as monoprotonated species HL^−” value ([2]; pH 7.4) was 56%. For the same molecule, the “log Ka1” value [2] was 10.33, the “log Ka2” value [2] was 7.15 and the “log Ka3” value [2] was 6.97. For the same molecule, the “log Ka4” value [2] was 3.24(4), the “log Ka1” value ([2]; listed as macropaquin^2−) was 10.33(4) and the “log Ka2” value ([2]; listed as macropaquin^2−) was 7.15(3). The “log Ka3” value ([2]; listed as macropaquin^2−) was 6.97(2) and the BaSO4 dissolved ([1]; pH 8, RT, 5 mM ligand) was 95%.
In the case of `O=S(=O)(O)c1ccc(O)c2nc(CN3CCOCCOCCN(Cc4ccc5c(S(=O)(=O)O)ccc(O)c5n4)CCOCCOCC3)ccc12` [macroquin-SO3, 2,2′-((1,4,10,13-tetraoxa-7,16-diazacyclooctadecane-7,16-diyl)bis(methylene))bis(8-hydroxyquinoline-5-sulfonic acid)], the “overall basicity … of log Ka values” [2] was 32.14, the “occurrence of the fully deprotonated ligand in solution” value [2] was “do not exist in solution below pH 8” and the “fraction of ligand present as H2L^2−” value ([2]; pH 7.4) was 78%. The “log Ka1” value [2] was 9.34, the “log Ka2” value [2] was 9.43 and the “log Ka3” value [2] was 6.75. The “log Ka4” value [2] was 6.62, the “log Ka1” value ([2]; listed as macroquin-SO3^4−) was 9.34(4) and the “log Ka2” value ([2]; listed as macroquin-SO3^4−) was 9.43(1). The “log Ka3” value ([2]; listed as macroquin-SO3^4−) was 6.75(4) and the “log Ka4” value ([2]; listed as macroquin-SO3^4−) was 6.62(4).
